Columns and labels:
[1] = tested on: high molecular weight DNA in tissues of Mytilus edulis, Faxonius virilis and Alitta virens; experiment: Preservation of high molecular weight DNA in stored tissue, TapeStation % R and nY, statements covering several taxa; settings: M. edulis and F. virilis, 3 months
Method: (§1) To evaluate the contributions of the three components of DESS to DNA preservation in tissues, DNA quality was compared among extracts of tissues from three aquatic invertebrate taxa preserved for various time intervals in DESS or one of six DESS-variant solutions in a full factorial design. Each of these six variants contained either one of the three components of DESS individually or one of the three possible pairwise combinations of two DESS components. […] All solutions were prepared at room temperature (22-24° C.) using distilled deionized water as the diluent.
Live specimens of M. edulis and F. virilis were stored on ice and live A. virens were stored at 4° C. prior to dissection. Gill, abdominal muscle and body tissue samples were collected immediately after euthanasia from specimens of M. edulis, F. virilis, and A. virens, respectively. […] DNA was extracted from the ninth subsample, hereafter referred to as fresh tissue, immediately after dissection without preservation. […]
After the assigned storage interval, each tissue sample was removed from its storage solution and reweighed. […] To control for changes in tissue weight during storage, a correction ratio was calculated by dividing the tissue weight prior to storage by the post storage weight. […]

[2] = tested on: high molecular weight DNA in tissues of Alitta virens; experiment: pH study: tissue stored 1 year in EDTA solutions at pH 8.0, 9.0, 10.0; settings: A. virens, one year of storage, room temperature
Description: The tissues of 5 species of aquatic animals were stored in the resulting solutions at room temperature for periods ranging from 6 weeks to 12 months.

[3] = tested on: high molecular weight DNA in tissues of Mytilus edulis, Faxonius virilis and Alitta virens; experiment: Qualitative DNA fragment length distribution by agarose gel electrophoresis, several taxa; settings: M. edulis and F. virilis, 6 months, room temperature
Method: (§2) Live specimens of M. edulis and F. virilis were stored on ice and live A. virens were stored at 4° C. prior to dissection. Gill, abdominal muscle and body tissue samples were collected immediately after euthanasia from specimens of M. edulis, F. virilis, and A. virens, respectively. […] DNA was extracted from the ninth subsample, hereafter referred to as fresh tissue, immediately after dissection without preservation. […] Seven specimens of M. edulis, seven specimens of F. virilis and ten specimens of A. virens were assigned to each time interval for a total of 35 M. edulis, 35 F. virilis and 50 A. virens.

[4] = tested on: high molecular weight DNA in body tissue of Alitta virens; experiment: Preservation of high molecular weight DNA in stored tissue, TapeStation % R and nY; settings: A. virens, 3 months, room temperature
Method: as §1, §2
(§3) After the assigned storage interval, each tissue sample was removed from its storage solution and reweighed. […] To control for changes in tissue weight during storage, a correction ratio was calculated by dividing the tissue weight prior to storage by the post storage weight. Each extract subsample weight was then multiplied by the correction ratio to estimate the fresh tissue weight equivalent for that subsample. These values were then used to calculate normalized yield (see statistical analysis). DNA was extracted from tissues using the DNeasy Blood and Tissue Kit (Qiagen; Hilden, Germany) following the manufacturers recommended protocol with tissues digested overnight and DNA eluted by adding two sequential 50 μl volumes of Buffer AE for a total elution volume of 100 μl. […]

[5] = tested on: high molecular weight DNA in gill tissue of Mytilus edulis; experiment: as above; settings: M. edulis, 3 months, room temperature
Method: as §1, §2, §3

[6] = tested on: rat; settings: oral; cited from earlier work

| Compound | normalized high molecular weight DNA yield (nY) [1] | percent high molecular weight DNA recovered (% R) [1] | high molecular weight DNA yielded [2] | high molecular weight DNA visualized by agarose gel electrophoresis [3] | normalized high molecular weight DNA yield (nY) [4] | percent high molecular weight DNA recovered (% R) [4] | percent high molecular weight DNA recovered (% R), average [5] | LD50 [6] |
| --- | --- | --- | --- | --- | --- | --- | --- | --- |
| CCO [EtOH, ethanol] | equal to or significantly greater than fresh tissues | equal to or significantly greater than fresh tissues | little or no high molecular weight DNA | evident | performed significantly better than tissues preserved in DE, DSS, D and E | performed significantly better than tissues preserved in DE, DSS, D and E | 15.37% | – |
| [Cl-].[Na+] [NaCl, sodium chloride] | – | – | – | – | – | – | – | 3,000 mg/kg |

Source: patent US12480151B2, “DNA preservation in biological specimens using metal chelators” (Northeastern University, priority 2020, dated 2025)
